Measured values: ChEMBL document CHEMBL3991601, “The target landscape of clinical kinase drugs” (Science, 2017)
Active and inactive are the calls of the source. For most assays here, no stated cut-off is given here; in the data, actives have a measured Kd and inactives only a lower limit.

Columns and labels:
[1] = target: T1, Serine/threonine-protein kinase TAO3 (Homo sapiens, UniProt Q9H2K8)
T1 sequence (Q9H2K8 whole entry): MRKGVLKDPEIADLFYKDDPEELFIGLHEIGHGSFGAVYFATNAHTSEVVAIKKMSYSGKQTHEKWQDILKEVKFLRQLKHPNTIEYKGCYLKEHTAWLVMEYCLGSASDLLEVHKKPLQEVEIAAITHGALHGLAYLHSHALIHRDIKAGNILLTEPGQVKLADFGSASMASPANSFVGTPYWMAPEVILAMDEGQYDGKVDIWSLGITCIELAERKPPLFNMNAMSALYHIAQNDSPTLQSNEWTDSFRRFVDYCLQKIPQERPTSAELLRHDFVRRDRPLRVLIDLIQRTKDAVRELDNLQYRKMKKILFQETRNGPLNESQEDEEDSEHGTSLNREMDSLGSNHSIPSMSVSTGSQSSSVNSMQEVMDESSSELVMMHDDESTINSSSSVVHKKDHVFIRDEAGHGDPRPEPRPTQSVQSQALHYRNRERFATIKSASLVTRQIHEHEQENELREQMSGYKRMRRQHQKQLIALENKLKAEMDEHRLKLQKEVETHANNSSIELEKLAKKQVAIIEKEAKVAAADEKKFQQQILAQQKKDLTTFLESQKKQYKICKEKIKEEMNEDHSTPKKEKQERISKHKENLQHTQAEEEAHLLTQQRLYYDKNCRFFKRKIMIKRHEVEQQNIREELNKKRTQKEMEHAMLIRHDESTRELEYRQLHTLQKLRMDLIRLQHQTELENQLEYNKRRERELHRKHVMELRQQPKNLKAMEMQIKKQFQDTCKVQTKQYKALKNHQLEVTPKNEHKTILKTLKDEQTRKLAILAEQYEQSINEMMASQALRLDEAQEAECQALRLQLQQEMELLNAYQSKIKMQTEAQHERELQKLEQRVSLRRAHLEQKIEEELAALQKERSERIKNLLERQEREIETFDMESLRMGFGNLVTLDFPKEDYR

[2] = target: Glycogen synthase kinase-3 beta (Homo sapiens, UniProt P49841)
[3] = target: Mitogen-activated protein kinase kinase kinase kinase 1 (Homo sapiens, UniProt Q92918)
[4] = target: cAMP-dependent protein kinase catalytic subunit gamma (Homo sapiens, UniProt P22612)
[5] = target: T2, Interleukin-1 receptor-associated kinase 3 (Homo sapiens, UniProt Q9Y616)
T2 sequence (Q9Y616 whole entry): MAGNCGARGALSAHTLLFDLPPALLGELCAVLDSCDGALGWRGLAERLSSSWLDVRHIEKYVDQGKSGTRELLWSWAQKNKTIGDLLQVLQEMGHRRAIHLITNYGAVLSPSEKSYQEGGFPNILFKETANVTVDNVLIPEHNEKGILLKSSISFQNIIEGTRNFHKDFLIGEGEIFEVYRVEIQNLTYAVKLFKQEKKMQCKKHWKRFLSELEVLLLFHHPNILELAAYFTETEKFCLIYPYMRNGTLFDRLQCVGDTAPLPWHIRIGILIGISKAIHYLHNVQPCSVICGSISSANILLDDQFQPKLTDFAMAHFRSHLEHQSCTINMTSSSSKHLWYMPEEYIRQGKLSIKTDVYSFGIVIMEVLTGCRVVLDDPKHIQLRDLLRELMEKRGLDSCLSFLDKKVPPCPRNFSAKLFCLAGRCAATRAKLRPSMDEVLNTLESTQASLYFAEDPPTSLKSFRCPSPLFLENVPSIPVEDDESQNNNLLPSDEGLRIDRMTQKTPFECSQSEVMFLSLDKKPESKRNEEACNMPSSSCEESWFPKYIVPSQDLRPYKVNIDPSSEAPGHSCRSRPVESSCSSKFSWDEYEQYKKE

[6] = target: T3, Bifunctional phosphoribosylaminoimidazole carboxylase/phosphoribosylaminoimidazole succinocarboxamide synthetase (Homo sapiens, UniProt P22234)
T3 sequence (P22234 whole entry): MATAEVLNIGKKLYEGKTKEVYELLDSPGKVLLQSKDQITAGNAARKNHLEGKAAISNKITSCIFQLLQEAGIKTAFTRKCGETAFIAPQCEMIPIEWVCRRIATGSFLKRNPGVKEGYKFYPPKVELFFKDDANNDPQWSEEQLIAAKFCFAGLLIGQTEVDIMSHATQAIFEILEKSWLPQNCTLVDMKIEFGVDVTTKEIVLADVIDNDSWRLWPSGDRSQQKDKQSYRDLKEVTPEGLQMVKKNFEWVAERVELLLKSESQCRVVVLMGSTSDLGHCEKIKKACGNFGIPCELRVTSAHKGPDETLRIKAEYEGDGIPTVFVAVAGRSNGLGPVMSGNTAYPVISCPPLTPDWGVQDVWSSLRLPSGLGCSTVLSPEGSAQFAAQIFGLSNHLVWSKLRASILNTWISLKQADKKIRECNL

[7] = target: T4, ATP-dependent 6-phosphofructokinase, platelet type (Homo sapiens, UniProt Q01813)
T4 sequence (Q01813 whole entry): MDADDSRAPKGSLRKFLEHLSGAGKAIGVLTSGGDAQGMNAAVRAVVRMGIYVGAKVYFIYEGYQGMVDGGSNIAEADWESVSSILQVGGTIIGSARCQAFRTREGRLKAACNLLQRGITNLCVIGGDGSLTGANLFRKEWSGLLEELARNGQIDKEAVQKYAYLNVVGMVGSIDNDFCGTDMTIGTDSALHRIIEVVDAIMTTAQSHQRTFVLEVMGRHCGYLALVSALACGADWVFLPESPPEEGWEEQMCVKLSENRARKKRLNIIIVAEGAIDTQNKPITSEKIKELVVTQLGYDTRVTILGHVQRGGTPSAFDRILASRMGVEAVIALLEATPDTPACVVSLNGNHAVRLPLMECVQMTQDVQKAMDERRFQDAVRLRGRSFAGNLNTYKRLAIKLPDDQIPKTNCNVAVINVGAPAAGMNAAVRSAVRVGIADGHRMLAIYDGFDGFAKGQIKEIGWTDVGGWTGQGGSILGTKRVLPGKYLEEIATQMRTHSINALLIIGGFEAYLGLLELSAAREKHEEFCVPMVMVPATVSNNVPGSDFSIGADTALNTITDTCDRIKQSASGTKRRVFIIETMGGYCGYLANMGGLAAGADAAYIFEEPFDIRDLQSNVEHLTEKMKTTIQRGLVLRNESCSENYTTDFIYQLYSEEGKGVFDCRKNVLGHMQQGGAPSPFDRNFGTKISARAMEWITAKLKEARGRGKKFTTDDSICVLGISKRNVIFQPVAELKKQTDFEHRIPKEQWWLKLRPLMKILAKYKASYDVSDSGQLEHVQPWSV

[8] = target: Eukaryotic translation initiation factor 2-alpha kinase 1 (Homo sapiens, UniProt Q9BQI3)
Chain of Eukaryotic translation initiation factor 2-alpha kinase 1 (Q9BQI3 whole entry): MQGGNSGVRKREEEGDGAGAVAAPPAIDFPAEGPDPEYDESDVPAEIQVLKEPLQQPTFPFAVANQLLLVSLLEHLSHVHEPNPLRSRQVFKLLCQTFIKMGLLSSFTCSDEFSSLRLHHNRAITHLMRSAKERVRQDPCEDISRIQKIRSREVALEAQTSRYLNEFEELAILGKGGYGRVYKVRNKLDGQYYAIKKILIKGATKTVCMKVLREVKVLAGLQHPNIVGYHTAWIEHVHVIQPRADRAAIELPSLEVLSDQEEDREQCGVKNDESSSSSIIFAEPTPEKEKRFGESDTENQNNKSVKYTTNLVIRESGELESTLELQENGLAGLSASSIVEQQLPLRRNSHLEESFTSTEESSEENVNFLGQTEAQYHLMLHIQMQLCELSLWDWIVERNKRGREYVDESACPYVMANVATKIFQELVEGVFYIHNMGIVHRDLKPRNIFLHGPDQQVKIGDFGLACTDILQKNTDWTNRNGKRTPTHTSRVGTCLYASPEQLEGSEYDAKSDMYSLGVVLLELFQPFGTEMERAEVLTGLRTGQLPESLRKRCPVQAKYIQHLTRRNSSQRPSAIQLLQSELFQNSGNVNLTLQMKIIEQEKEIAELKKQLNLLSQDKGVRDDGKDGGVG

Chain of cAMP-dependent protein kinase catalytic subunit gamma (P22612 whole entry): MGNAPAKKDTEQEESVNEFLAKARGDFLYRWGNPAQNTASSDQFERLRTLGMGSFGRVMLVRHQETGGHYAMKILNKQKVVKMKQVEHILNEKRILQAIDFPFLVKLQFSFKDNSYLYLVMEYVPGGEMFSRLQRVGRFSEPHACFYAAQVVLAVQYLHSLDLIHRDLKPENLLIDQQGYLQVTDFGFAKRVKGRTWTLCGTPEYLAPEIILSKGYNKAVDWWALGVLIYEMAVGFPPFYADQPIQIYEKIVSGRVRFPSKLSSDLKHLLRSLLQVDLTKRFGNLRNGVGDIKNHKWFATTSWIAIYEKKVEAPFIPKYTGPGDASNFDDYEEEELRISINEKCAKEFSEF
Chain of Glycogen synthase kinase-3 beta (P49841 whole entry): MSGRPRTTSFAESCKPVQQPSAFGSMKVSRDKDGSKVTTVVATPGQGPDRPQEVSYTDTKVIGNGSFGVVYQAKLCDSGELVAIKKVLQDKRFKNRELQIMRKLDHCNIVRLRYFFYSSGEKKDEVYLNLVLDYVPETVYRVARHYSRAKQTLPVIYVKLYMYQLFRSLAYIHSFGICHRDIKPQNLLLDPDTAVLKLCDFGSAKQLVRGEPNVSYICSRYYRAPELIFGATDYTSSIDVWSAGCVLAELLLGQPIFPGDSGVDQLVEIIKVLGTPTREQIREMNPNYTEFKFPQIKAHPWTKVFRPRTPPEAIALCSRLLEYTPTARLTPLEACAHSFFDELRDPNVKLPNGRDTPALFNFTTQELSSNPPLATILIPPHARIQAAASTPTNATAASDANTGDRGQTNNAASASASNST
Chain of Mitogen-activated protein kinase kinase kinase kinase 1 (Q92918 whole entry): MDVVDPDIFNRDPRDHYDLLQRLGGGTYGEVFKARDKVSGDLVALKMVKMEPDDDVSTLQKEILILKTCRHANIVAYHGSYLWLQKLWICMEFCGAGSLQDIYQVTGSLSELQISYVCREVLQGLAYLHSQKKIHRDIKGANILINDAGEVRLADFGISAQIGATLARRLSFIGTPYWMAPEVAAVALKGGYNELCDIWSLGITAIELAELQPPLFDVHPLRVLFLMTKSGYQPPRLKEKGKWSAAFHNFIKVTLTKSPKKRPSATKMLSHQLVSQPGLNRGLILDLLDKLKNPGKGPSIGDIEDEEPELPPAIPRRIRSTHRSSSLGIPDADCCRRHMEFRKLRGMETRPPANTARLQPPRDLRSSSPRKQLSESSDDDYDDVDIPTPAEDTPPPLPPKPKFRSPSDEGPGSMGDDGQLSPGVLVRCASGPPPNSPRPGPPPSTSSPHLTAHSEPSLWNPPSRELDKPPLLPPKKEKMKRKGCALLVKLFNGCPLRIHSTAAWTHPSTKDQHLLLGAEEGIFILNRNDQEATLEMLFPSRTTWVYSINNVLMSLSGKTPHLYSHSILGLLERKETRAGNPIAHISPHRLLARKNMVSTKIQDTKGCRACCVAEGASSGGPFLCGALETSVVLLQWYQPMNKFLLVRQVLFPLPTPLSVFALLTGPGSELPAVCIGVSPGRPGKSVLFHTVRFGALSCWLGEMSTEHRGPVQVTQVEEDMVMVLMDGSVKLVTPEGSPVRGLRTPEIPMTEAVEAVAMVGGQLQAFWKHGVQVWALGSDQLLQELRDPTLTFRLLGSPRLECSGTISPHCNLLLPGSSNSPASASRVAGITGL

Compound | Kd [1] | Kd [2] | Kd [3] | Kd [4] | Kd [5] | Kd [6] | Kd [7] | Kd [8]
C[C@@H](N)c1ccc(C(=O)Nc2ccnc3[nH]ccc23)cc1 [Y-39983] | > 30 µM (inactive) | 0.924 µM (active) | > 30 µM (inactive) | > 30 µM (inactive) | > 30 µM (inactive) | > 30 µM (inactive) | > 30 µM (inactive) | > 30 µM (inactive)
CN1C/C=C/CCOc2cccc(c2)-c2ccnc(n2)Nc2cccc(c2)C1 [ZOTIRACICLIB] | 2.86 µM (active) | 0.447 µM (active) | > 30 µM (inactive) | > 30 µM (inactive) | 0.286 µM (active) | > 30 µM (inactive) | > 30 µM (inactive) | > 30 µM (inactive)
